Measurements taken from patent US20070043034A1, “Chlorine Ion Uptake Modulators and Uses Thereof” (priority 2005, published 2007).

Tests used:
NKCCl [1] = molecular target: T1, NKCCl (Rattus norvegicus, UniProt E9PTX9); experiment: Whole-cell voltage clamp, reversal potential of currents elicited by local GABA application (Egaba) in CA1 pyramidal cells; type: cell-based; details: in the presence of bumetanide, n=6 cells from 8, p=0.005, control −37±2.72 mV
T1 construct: gramicidin perforated patch clamped CA1 pyramidal neuron in an acute hippocampal slice from a P5 rat; from tissue; host or cells: acute hippocampal slices of P3-P6 male Sprague-Dawley rats; CA1 pyramidal neurons
T1 sequence (E9PTX9 1-1203): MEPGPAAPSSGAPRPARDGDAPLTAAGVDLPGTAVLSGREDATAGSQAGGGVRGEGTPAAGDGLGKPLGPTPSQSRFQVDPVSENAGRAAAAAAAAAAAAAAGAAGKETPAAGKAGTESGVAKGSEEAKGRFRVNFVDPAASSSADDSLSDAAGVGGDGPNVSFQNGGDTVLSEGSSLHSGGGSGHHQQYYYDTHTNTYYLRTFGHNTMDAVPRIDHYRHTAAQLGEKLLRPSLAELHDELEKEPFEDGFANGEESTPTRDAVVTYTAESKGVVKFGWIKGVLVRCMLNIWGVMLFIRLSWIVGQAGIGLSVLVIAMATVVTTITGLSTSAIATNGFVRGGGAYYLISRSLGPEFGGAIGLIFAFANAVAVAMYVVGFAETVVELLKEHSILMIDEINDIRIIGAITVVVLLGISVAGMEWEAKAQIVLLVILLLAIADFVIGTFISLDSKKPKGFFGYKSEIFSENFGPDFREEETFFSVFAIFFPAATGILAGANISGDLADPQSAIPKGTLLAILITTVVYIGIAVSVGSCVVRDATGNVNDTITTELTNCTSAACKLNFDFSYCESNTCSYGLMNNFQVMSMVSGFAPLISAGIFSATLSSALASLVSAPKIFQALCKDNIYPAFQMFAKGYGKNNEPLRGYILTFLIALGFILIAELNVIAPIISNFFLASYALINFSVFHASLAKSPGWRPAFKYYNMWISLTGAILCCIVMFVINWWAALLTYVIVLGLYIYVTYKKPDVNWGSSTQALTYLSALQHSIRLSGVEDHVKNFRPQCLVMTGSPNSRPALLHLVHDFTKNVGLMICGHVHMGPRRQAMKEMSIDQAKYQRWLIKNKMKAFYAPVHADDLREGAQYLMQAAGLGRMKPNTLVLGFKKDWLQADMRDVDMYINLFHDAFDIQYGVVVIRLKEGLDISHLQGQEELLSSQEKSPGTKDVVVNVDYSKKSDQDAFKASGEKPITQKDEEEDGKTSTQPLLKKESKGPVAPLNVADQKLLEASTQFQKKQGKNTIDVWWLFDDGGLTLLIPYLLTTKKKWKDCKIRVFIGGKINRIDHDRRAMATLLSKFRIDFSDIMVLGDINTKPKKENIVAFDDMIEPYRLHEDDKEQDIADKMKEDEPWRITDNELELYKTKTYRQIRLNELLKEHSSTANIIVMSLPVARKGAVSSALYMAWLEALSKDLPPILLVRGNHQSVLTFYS
From the text: In one example, direct effect of bumetanide on Egaba (excitatory GABAA) can be tested. Here, whole-cell voltage clamp recordings to measure the reversal potential of currents elicited by local application of GABA (10 pM, 10 ms pulse duration) in CA1 pyramidal cells were used.
In one example, electrophysiological recordings are gathered from individual slices and subsequently transferred to a conventional submerged-type chamber and continuously superfused with, for example, oxygenated aCSF. Whole-cell recordings were generated. Patch electrodes were used, made by known methods. For whole-cell recording in voltage-clamp mode pipettes were filled with a buffered solution.

KA-induced rat seizures = experiment: Kainic acid (KA) induced seizures in rat pups, EEG recording in vivo; details: KA 2 mg/kg s.c.
From the text: Kainic Acid (KA) is a commonly used agent for creating an in vivo neonatal-like seizure model in rats for study. It is believed that this seizure model closely parallels human neonatal seizure disorders. KA, a glutamate receptor agonist, was used to induce neonatal-like seizures in postnatal (P) 7-12 day male Wistar rats. The rats were equipped with electrodes including recording and reference electrodes by standard means. There are many known methods for measuring parameters of seizures, in this example electrical signals were digitized using an analogue-to-digital converter for example a DigiData 1322A (Axon Instuments USA). The sampling interval can vary depending on the desired target interval. In this example, the sampling interval per signal was 200 […]s (5 kHz). For data analysis, several computer programs exist for capturing and analyzing these seizure parameters such as Clamp 9.2 (Axon Instruments, USA) and Origon 5.0 (Microcal Software, USA) used here. Interictal spikes were determined by typical means utilizing band-pass filtered raw data.
Many known methods exist for analyzing the power levels of different frequency components in a signal such as a signal recorded from a seizure episode. For example, power spectrum analysis can be performed after applying a Hamming window function. Unless otherwise indicated, power was calculated in 1-2 min time windows by integrating the root mean square value of the signal in frequency bands from 1 to 100 Hz (EEC band) and from 200 to 500 Hz (fast ripple band).
Pharmaceutical compositions of the present invention can be administered to seizure-induced rats to test the seizure modulatory properties of the pharmaceutical composition. In one exemplary method, the inhibition of NKCCl and its affect on seizures in rat pups was studied. Two days after implantation of recording electrodes, six P9-P10 rats received subcutaneous injection of KA (2 mg/kg) and six P9-10 control rats received subcutaneous 0.9% sodium chloride saline injections. 10-20 minutes after KA injection regular pattern of behavioral signs started, involving scratching-like movements of the hindpaws, loss of balance and turning on the side. Recurrent interictal and ictal electroencephalographic patterns occurred 20-80 minutes (61.2±10.4 min; mean±se) after KA injection in all rats from this experimental group (FIG. 4B). […] Interictal spikes usually occurred synchronously in the left and right hemispheres. Frequency of the interictal spikes was 1.43±0.06 Hz (n=23 seizures in 6 rats). Before transition to ictal patterns, interictal spikes were usually followed by fast ripple (100-500 Hz) and gamma-frequency oscillations (20-50 Hz). Tonic-clonic seizures were the most common type of seizures induced by KA in P9-10 rats. Ictal-tonic phase lasted 12.6±1.4 s (16 seizures in 5 rats). Population spikes of 18.7±1.2 Hz were characteristic of the tonic phase of KA-induced seizures (FIG. 4C). Tonic discharges were followed by clonic bursts (FIG. 4C). Large amplitude population spikes followed by 100-200 Hz ripples and 200-1200 ms gamma frequency after discharges characterized the clonic bursts. The mean duration of the clonic phase was 36.4±5 s (25 seizures in 6 rats). The ictal patterns were followed by postictal depression (FIG. 4 B-4C). During ictal EEG activity, motor activity consisted of scratching, jerky movements, turning on the side or on the back and frequent tail shaking. Five to ten recurrent seizures with an average interval 379±24.5 s were followed by periodic epileptiform discharges (PLEDs) (FIG. 4D).
In one exemplary experiment, a pharmaceutical composition of the present invention comprising bumetanide was compared to phenobarbital for effects on KA-induced rat seizures. Two days after implantation of recording electrodes, twenty-two P9-12 age-matched rats received subcutaneous injection with KA (2 mg/kg). […]

NKCCl [2] = molecular target: T1, NKCCl; experiment: Gramicidin perforated patch recording of ECl and Cli in CA1 pyramidal cells of acute hippocampal slices; type: cell-based; details: 10 μM bumetanide
[3] = P9-12 rats, phenobarbital 25 mg/kg or bumetanide 0.1-0.2 mg/kg i.p.

For CCCCNc1cc(C(=O)O)cc(S(N)(=O)=O)c1Oc1ccccc1 [bumetanide, 3-(aminosulfonyl)-5-(butylamino)-4-phenoxybenzoic acid], the “Egaba (reversal potential of currents elicited by local application of GABA)” value (NKCCl [1]) was −40.35+2.73 mV, the periodic epileptiform discharges (KA-induced rat seizures; bumetanide 0.1-0.2 mg/kg i.p.) was “occurred in all six rats” and the “animals with recurrent ictal-clonic activity / EEG clonic seizures” value (KA-induced rat seizures; P9-12 rats, drug i.p. 10 min after KA (phenobarbital 25 mg/kg; bumetanide 0.1-0.2 mg/kg), 6 rats per group) was 50%. For the same molecule, the “duration of ictal-clonic phase” value (KA-induced rat seizures; [3]) was 12.5 ± 1.1 s, the “duration of ictal-tonic phase” value (KA-induced rat seizures; [3]) was 9 ± 1.9 s and the “frequency of interictal spikes” value (KA-induced rat seizures; [3]) was 1.42 ± 0.07 Hz. For the same molecule, the “mean duration of single ictal episode (seizure including interictal and ictal phases)” value (KA-induced rat seizures; [3]) was 32 ± 3.9 s, the “mean interval between seizures” value (KA-induced rat seizures; [3]) was 360.1 ± 68.6 s and the “rats with ictal-tonic pattern / tonic-clonic seizures” value (KA-induced rat seizures; [3]) was 16.7%. The “increase of power of EEG activity in the 20 minute window following seizure onset” value (KA-induced rat seizures; compared to pre-ictal baseline, phenobarbital 25 mg/kg or bumetanide 0.1-0.2 mg/kg i.p., saline control 444.7±136.3%) was 88.7±24.5%, the holding current (NKCCl [2]) was “no change” and the ECl (NKCCl [2]; P4-6 CA1 pyramidal cells, n=9, control −67.34±3.78 mV) was −80.14±4.61 mV. For the same molecule, the “lowering of Cli” value (NKCCl [2]; n=9, P=0.0006) was 37±0.05% and the Cli (NKCCl [2]; n=9, control 12.00±1.47 mM) was 7.62 ± 1.14 mM.
